Measured values taken from publication PMC5516711 (Evidence-based Complementary and Alternative Medicine : eCAM, 2017).
Read-outs that look alike come from different tables or passages of the source.

How the values were obtained:
[1] = Pharmacokinetic study in rats after oral administration of Naoxintong capsule (NXTC), plasma levels by HPLC-MS/MS; settings: for Detection in rat plasma after oral administration of NXTC: doses of 0.5 g kg^−1 and 1.5 g kg^−1, at the present LLOQ level; for Tmax / AUC(0-inf) / AUC(0-t) / Cmax / MRT inf / MRT last / half-life: male, Sprague-Dawley, rat, plasma, po
Experimental: (§1) The LC-MS/MS analysis was carried out on an Agilent 1200 system (Agilent Corporation, USA) coupled with an API 3200 triple quadrupole mass spectrometer with a Turbo Ion Spray Ionization (ESI) source (Concord, Ontario, Canada). The Agilent 1200 system consisted of a vacuum degasser (G1322A), a binary pump (G1312A), and a Hip-ALS autosampler (G13678). Chromatographic separation was performed on an Eclipse plus C18 column (4.6 × 100 mm, 1.8 μm) with a security guard C18 column (2.1 mm × 12.5 mm, 5 μm) (Agilent, USA). The mobile phases consisted of acetonitrile (A) and formic acid aqueous solution (B). The linear gradient was 30% A-30% A (0–10 min); 30%–80% A (10–15 min); 80%–95% A (15–20 min); 95%-95% A (20–30 min). Reequilibration time after gradient elution was 5 min. The column temperature was maintained at 25°C and the flow rate was set at 0.300 mL min^−1. ESI-MS spectra were acquired in both negative and positive ion multiple reaction monitoring (MRM) mode. Data collection and peak calculations were performed by Analyst 1.4.2 software (AB MDS Sciex).
(§2) The ISs solution (10 μL) and formic acid (10 μL) were added to plasma samples (100 μL). Acetonitrile (370 μL) was used to precipitate protein. The mixed solution was swirled for 1 min and then centrifuged at 14000 rpm for 10 min. The supernatant fluid was collected and then evaporated to dryness with a stream of N2 gas in a 40°C water bath. The residue was reconstituted in 100 μL methanol, swirled for 1 min. The sample was centrifuged at 14000 rpm for 10 min. 10 μL of the supernatant was injected into the LC-MS/MS system for analysis.
(§3) Rats were fasted for 12 h with free access to water before the experiment. NXTC extracts were orally administrated to ten rats at single time dose (0.5 g kg^−1) and to ten rats at triple doses (1.5 g kg^−1). The blood samples were collected at 5, 10, 15, 30, 45, 60, 90, 120, 240, 480, 720, and 1440 min after oral administration. Blood samples (200 μL) were collected from the vein of the eye sockets into heparinized tubes after the rats were anesthetized with ethyl ether. The samples were immediately centrifuged at 7,000 rpm, 10°C for 10 min. Then the plasma samples obtained were stored at −20°C.
(§4) Some pharmacokinetic parameters were calculated by DAS1.0 software (Drug and Statistics 1.0, Medical College of Wannan, China). An appropriate model was employed to calculate the following parameters: area under the plasma concentration versus time curve from zero to last sampling time (AUC0→24 h) and infinity (AUC0→∞) and mean retention time from zero to last sampling time (MRT0→24 h). […] All data were shown as average value ± standard deviation.

[2] = rat, in vivo, po; cited from earlier work
[3] = in vivo
Experimental: as §1, §2, §3, §4

Compound	Detection in rat plasma after oral administration of NXTC [1]	AUC(0-inf) ([1]; 0.5 g/kg) [ng·h/mL]	AUC(0-t) ([1]; 0.5 g/kg) [ng·h/mL]	Cmax ([1]; 0.5 g/kg) [ng/mL]	MRT inf ([1]; 0.5 g/kg) [h]	MRT last ([1]; 0.5 g/kg) [h]	Tmax ([1]; 0.5 g/kg) [h]	half-life ([1]; 0.5 g/kg) [h]	AUC(0-inf) ([1]; 1.5 g/kg) [ng·h/mL]	AUC(0-t) ([1]; 1.5 g/kg) [ng·h/mL]	Cmax ([1]; 1.5 g/kg) [ng/mL]	MRT inf ([1]; 1.5 g/kg) [h]	MRT last ([1]; 1.5 g/kg) [h]	Tmax ([1]; 1.5 g/kg) [h]	half-life ([1]; 1.5 g/kg) [h]	also measured
N#C[C@H](O[C@@H]1O[C@H](CO[C@@H]2O[C@H](CO)[C@@H](O)[C@H](O)[C@H]2O)[C@@H](O)[C@H](O)[C@H]1O)c1ccccc1 [Amygdalin, amygdalin]	not detected	–	–	–	–	–	–	–	–	–	–	–	–	–	–	–
CC(C)(O)[C@@H]1CC[C@](C)([C@H]2[C@@H](O)C[C@@]3(C)[C@@H]4C[C@H](O[C@@H]5O[C@H](CO)[C@@H](O)[C@H](O)[C@H]5O)[C@H]5C(C)(C)[C@@H](O[C@@H]6OC[C@@H](O)[C@H](O)[C@H]6O)CC[C@@]56C[C@@]46CC[C@]23C)O1 [Astragaloside IV, astragaloside IV]	not detected	–	–	–	–	–	–	–	–	–	–	–	–	–	–	–
O=C(O)/C=C/c1ccc(O)c(O)c1 [Caffeic acid, caffeic acid]	–	19.6 ± 21.1	11.7 ± 9.6	9.8 ± 4.4	4.02 ± 4.96	1.33 ± 1.19	0.18 ± 0.03	0.83 ± 0.33	28.5 ± 20	26 ± 18.6	15.2 ± 3.08	2.72 ± 1.82	2.03 ± 1.43	0.2 ± 0.04	0.7 ± 0.35	Tmax [1]: < 1 h
C[C@H]1COC2=C1C(=O)C(=O)c1c2ccc2c1CCCC2(C)C [Cryptotanshinone, cryptotanshinone]	could be detected	4.72 ± 5.99	1.49 ± 0.76	0.61 ± 0.23	20.7 ± 27.7	3.06 ± 1.47	0.51 ± 0.4	2.93 ± 3.89	55.2 ± 59.8	24.8 ± 27.9	2.78 ± 2.52	19 ± 17.5	7.37 ± 3.95	0.6 ± 0.2	17.8 ± 17.1	half-life ([1]; 1.5 g kg^−1): 17.8 ± 17.1 h
CC(C)(O)CC[C@@H](O)[C@](C)(O)[C@H]1CC[C@@]2(O)C3=CC(=O)[C@@H]4C[C@@H](O)[C@@H](O)C[C@]4(C)[C@H]3CC[C@]12C [Ecdysterone, ecdysterone]	not detected	–	–	–	–	–	–	–	–	–	–	–	–	–	–	–
COc1cc(/C=C/C(=O)O)ccc1O [Ferulic acid, ferulic acid]	–	–	–	–	–	–	–	–	–	–	–	–	–	–	–	mean Tmax [2]: 1.8 min; Detection in rat plasma after oral administration of NXTC [3]: could be detected; Cmax ([3]; rat, po): 12.07 ± 4.61 ng/mL; Tmax ([3]; rat, po): less than 1 h; AUC(0–24 h) ([3]; rat, po, 0.5 g/kg): 3.20 ± 1.55 ng/mL∗h; AUC(0–∞) ([3]; rat, po, 0.5 g/kg): 4.19 ± 2.30 ng/mL∗h; C max ([3]; rat, po, 0.5 g/kg): 10.93 ± 4.67 ng/mL; MRT(0–24 h) ([3]; rat, po, 0.5 g/kg): 0.28 ± 0.10 h; MRT(0–∞) ([3]; rat, po, 0.5 g/kg): 0.48 ± 0.33 h; T 1/2 ([3]; rat, po, 0.5 g/kg): 0.20 ± 0.19 h; T max ([3]; rat, po, 0.5 g/kg): 0.17 ± 0.00 h; AUC(0–24 h) ([3]; rat, po, 1.5 g/kg): 8.33 ± 3.87 ng/mL∗h; AUC(0–∞) ([3]; rat, po, 1.5 g/kg): 14.4 ± 12.8 ng/mL∗h; C max ([3]; rat, po, 1.5 g/kg): 12.07 ± 4.61 ng/mL; MRT(0–24 h) ([3]; rat, po, 1.5 g/kg): 0.81 ± 0.38 h; MRT(0–∞) ([3]; rat, po, 1.5 g/kg): 3.80 ± 6.11 h; T 1/2 ([3]; rat, po, 1.5 g/kg): 0.42 ± 0.15 h; T max ([3]; rat, po, 1.5 g/kg): 0.19 ± 0.04 h
COc1ccc(-c2coc3cc(O)ccc3c2=O)cc1 [Formononetin, formononetin]	could be detected	0.15 ± 0.09	0.08 ± 0.05	0.11 ± 0.05	1.67 ± 1.53	0.56 ± 0.23	0.49 ± 0.33	2.96 ± 5.61	3.06 ± 3.07	1.47 ± 1.82	0.37 ± 0.32	25.9 ± 31.8	5.16 ± 3.68	0.38 ± 0.25	1.42 ± 0.69	AUC(0-t) [1]: < 1 ng·h/mL; Cmax [1]: < 1 ng/mL; Tmax [1]: < 1 h
OC[C@H]1O[C@@H](Oc2cc(O)cc(/C=C/c3ccc(O[C@@H]4O[C@H](CO)[C@@H](O)[C@H](O)[C@H]4O)cc3O)c2)[C@H](O)[C@@H](O)[C@@H]1O [Mulberroside A, mulberroside A]	not detected	–	–	–	–	–	–	–	–	–	–	–	–	–	–	–
C[C@@]12C[C@@]3(O)O[C@@H](O1)[C@]1(COC(=O)c4ccccc4)[C@H]3C[C@@]12O[C@@H]1O[C@H](CO)[C@@H](O)[C@H](O)[C@H]1O [Paeoniflorin, paeoniflorin]	not detected	–	–	–	–	–	–	–	–	–	–	–	–	–	–	–
Cc1coc2c1C(=O)C(=O)c1c-2ccc2c1CCCC2(C)C [Tanshinone IIA, tanshinone IIA]	could be detected	27.7 ± 36.2	8.15 ± 4.85	1.61 ± 1.11	26.8 ± 31.5	5.48 ± 1.66	0.54 ± 0.29	11.4 ± 15.8	83 ± 81	35.4 ± 42.2	4.18 ± 3.34	27.2 ± 20.6	5.75 ± 3.36	3.17 ± 3.75	13.2 ± 10.4	–
salvianolic acid B	not detected	–	–	–	–	–	–	–	–	–	–	–	–	–	–	–
